This passage reports IC50 results from ChEMBL document CHEMBL3396969, “Reemergence of chloroquine (CQ) analogs as multi-targeting antimalarial agents: a review” (Eur J Med Chem, 2015).

Series [1] relates to Plasmodium falciparum. The experiment in a line: Antimicrobial activity against Plasmodium falciparum D6 infected in human erythrocytes after 72 hrs by SYBR green I fluorescence-based method. The settings on record: D6, 72 h. In kind it is functional, organism-based.
The test system of series [2] is Plasmodium falciparum. In words: Antimicrobial activity against Plasmodium falciparum Dd2 infected in human erythrocytes after 72 hrs by SYBR green I fluorescence-based method. The settings on record: Dd2, 72 h. In kind it is functional, cell-based.
For series [3], the system named is Plasmodium falciparum. The experiment in a line: Antimicrobial activity against Plasmodium falciparum 7G8 infected in human erythrocytes after 72 hrs by SYBR green I fluorescence-based method. In kind it is functional, cell-based. Particulars: 7G8, 72 h.
Series [4] relates to Plasmodium falciparum. In words: Antimicrobial activity against chloroquine-sensitive Plasmodium falciparum 3D7 infected in human erythrocytes after 72 hrs by SYBR green I fluorescence-based method. In kind it is functional, organism-based. The settings on record: 3D7, 72 h.
In series [5] the test system is Plasmodium falciparum. In words: Antimicrobial activity against chloroquine/SP-resistant Plasmodium falciparum W2 infected in human erythrocytes after 72 hrs by SYBR green I fluorescence-based method. In kind it is functional, organism-based. The settings on record: W2, 72 h.
The subject of series [6] is Plasmodium falciparum. The experiment in a line: Antimicrobial activity against Mq-resistant Plasmodium falciparum D6 infected in human erythrocytes after 72 hrs by SYBR green I fluorescence-based method. In kind it is functional, organism-based. Particulars: D6, 72 h.
For series [7], the system named is Plasmodium falciparum. In words: Antimicrobial activity against chloroquine/MQ/atrovaquone-resistant Plasmodium falciparum TM90C2B infected in human erythrocytes after 72 hrs by SYBR green I fluorescence-based method. In kind it is functional, organism-based.
The test system of series [8] is Plasmodium falciparum. The experiment in a line: Antimicrobial activity against Plasmodium falciparum Thai6 infected in human erythrocytes after 72 hrs by SYBR green I fluorescence-based method. In kind it is functional, organism-based. Particulars: Thai6, 72 h.
For series [9], the system named is Plasmodium falciparum. In words: Antimicrobial activity against Plasmodium falciparum Cam6 infected in human erythrocytes after 72 hrs by SYBR green I fluorescence-based method. The settings on record: Cam6, 72 h. In kind it is functional, organism-based.
In series [10] the test system is Plasmodium falciparum. The experiment in a line: Antimicrobial activity against chloroquine-sensitive Plasmodium falciparum 3D7. In kind it is functional, organism-based.
Series [11] has as its system Plasmodium falciparum. The experiment in a line: Antimicrobial activity against Plasmodium falciparum Dd2. In kind it is functional.
The test system of series [12] is Plasmodium falciparum. In words: Antimicrobial activity against chloroquine-resistant Plasmodium falciparum K1. In kind it is functional, organism-based.
For series [13], the system named is Plasmodium falciparum. The experiment in a line: Antimicrobial activity against chloroquine-resistant Plasmodium falciparum W2 infected in human erythrocytes assessed as incorporation of [3H]-hypoxanthine by beta counting analysis. In kind it is functional, organism-based.
Series [14] can be described thus: Inhibition of beta-hematin formation. In kind it is physicochemical.

The IC50 is the midpoint of a concentration-inhibition curve. As to `CCN(CC)CCNc1c(C)cnc2cc(Cl)ccc12`, the IC50 in the series on Plasmodium falciparum [1], in the series on Plasmodium falciparum [2] and in the series on Plasmodium falciparum [3] was 0.9 nM in each case.
Consider `CC(C)(N)CNc1ccnc2cc(Cl)ccc12`, for which the IC50 in the series on Plasmodium falciparum [4], with Plasmodium falciparum [5], in the series on Plasmodium falciparum [6], in the series on Plasmodium falciparum [7], in the series on Plasmodium falciparum [8] and in the series on Plasmodium falciparum [9] was 5.52 nM in each case.
For the molecule `CN(C)C(C)(C)CNc1ccnc2cc(Cl)ccc12`, the IC50 in the series on Plasmodium falciparum [4], in the series on Plasmodium falciparum [5], in the series on Plasmodium falciparum [6], in the series on Plasmodium falciparum [7], in the series on Plasmodium falciparum [8] and with Plasmodium falciparum [9] was 5.52 nM in each case.
Take `COc1cc(NC(C)CCCNc2ccnc3cc(Cl)ccc23)c2ncccc2c1` (stereo not drawn): the concentration for half-maximal inhibition (IC50) in the series on Plasmodium falciparum [10], with Plasmodium falciparum [11] and in the series with Plasmodium falciparum [12] was 80 nM in each case.
As for `NCCNCCNc1ccnc2cc(Cl)ccc12`, in the series on Plasmodium falciparum [13], the IC50 turned out to be 60 nM.
`CCN(CC)CCCC(C)Nc1ccnc2cc(Cl)ccc12` (stereo not drawn) [CHLOROQUINE] had an IC50 in series [14] of 27900 nM.
Turning to `COc1cc(NC(C)CCCN)c2ncccc2c1` (stereo not drawn) [PRIMAQUINE], the IC50 in the series with Plasmodium falciparum [10], in the series on Plasmodium falciparum [11] and in the series on Plasmodium falciparum [12] was 460 nM throughout.
